Consider 21 compounds from US20230416227A1, “PLASMA KALLIKREIN INHIBITORS” (Merck Sharp & Dohme LLC, priority 2020, published 2023).

One assay concerns the target T1, Human plasma kallikrein (Homo sapiens, UniProt P03952).
T1 construct: yields a heavy chain (371 amino acids) and a light chain (248 amino acids); purchased Enzyme Research Laboratories
The assay is described as follows: Plasma Kallikrein Assay. The format is biochemical. Particulars: purified Human plasma kallikrein 0.5 nM, substrate Acetyl-K-P-R-AFC, pH 7.4.

The target in a further assay is human factor XIa (Homo sapiens, UniProt P03951). The assay is described as follows: Factor XIa Assay. The format is biochemical. To be noted: human factor XIa 0.04 nM, substrate GPR-AFC, 30 min pre-incubation at 25° C., pH 7.4; read-out: FXIa IC50.
Chain of human factor XIa (P03951 388-625 limits assumed): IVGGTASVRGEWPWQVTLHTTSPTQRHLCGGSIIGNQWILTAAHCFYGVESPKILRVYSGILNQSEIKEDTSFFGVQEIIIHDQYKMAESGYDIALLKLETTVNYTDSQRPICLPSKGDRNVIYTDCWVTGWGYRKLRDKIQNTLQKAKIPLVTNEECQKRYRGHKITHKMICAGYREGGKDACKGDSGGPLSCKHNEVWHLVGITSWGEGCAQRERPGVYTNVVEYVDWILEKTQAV
Chain of human factor XIa (P03951 19-387 partner limits assumed): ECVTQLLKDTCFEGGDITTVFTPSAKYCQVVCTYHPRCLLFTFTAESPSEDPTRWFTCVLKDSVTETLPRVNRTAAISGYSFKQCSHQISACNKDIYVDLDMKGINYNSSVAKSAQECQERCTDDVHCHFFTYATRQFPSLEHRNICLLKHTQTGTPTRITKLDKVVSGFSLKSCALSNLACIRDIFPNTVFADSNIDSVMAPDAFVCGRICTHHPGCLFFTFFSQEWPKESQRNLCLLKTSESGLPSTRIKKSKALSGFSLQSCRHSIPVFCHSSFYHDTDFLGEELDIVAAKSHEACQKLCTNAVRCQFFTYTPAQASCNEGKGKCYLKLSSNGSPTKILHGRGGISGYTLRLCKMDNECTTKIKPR

T1 sequence (P03952 391-638 limits assumed): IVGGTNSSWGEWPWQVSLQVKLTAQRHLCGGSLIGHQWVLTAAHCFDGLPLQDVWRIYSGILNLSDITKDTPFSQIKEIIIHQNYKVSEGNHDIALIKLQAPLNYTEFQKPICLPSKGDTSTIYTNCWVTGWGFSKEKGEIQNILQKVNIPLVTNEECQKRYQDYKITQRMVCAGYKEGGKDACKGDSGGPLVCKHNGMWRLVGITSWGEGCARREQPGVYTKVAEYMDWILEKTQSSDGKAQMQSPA
T1 sequence (P03952 20-390 partner limits assumed): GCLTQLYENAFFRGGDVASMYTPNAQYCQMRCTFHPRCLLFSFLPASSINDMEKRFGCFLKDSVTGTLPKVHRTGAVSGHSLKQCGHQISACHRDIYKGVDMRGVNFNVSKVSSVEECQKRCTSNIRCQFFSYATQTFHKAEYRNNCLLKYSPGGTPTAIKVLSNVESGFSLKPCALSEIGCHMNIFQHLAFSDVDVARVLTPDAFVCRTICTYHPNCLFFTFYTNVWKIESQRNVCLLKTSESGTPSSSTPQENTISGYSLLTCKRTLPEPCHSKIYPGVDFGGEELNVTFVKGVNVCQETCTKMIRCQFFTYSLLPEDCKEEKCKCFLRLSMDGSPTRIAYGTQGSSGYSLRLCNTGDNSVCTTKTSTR

On to `O=C(Nc1cnn(Cc2cnc(N3CCCC3CCO)nc2)c1)c1cncc(-c2c(C(F)F)ccc(Cl)c2F)n1` (single isomer, unassigned) [Example 102, (S or R)-6-(3-Chloro-6-(difluoromethyl)-2-fluorophenyl)-N-(1-((2-(2-(2-hydroxyethyl)pyrrolidin-1-yl)pyrimidin-5-yl)methyl)-1H-pyrazol-4-yl)pyrazine-2-carboxamide], for which the results for the IC50 against Human plasma kallikrein and on human factor XIa were 31.2 nM and 2250 nM, respectively.
Regarding `CC(c1cnc(N2Cc3cnn(C)c3C2)nc1)n1cc(NC(=O)c2cncc(-c3c(C(F)F)ccc(Cl)c3F)n2)cn1` (stereo not drawn) [Example 94, 6-(3-Chloro-6-(difluoromethyl)-2-fluorophenyl)-N-(1-(1-(2-(1-methyl-4,6-dihydropyrrolo[3,4-c]pyrazol-5(1H)-yl)pyrimidin-5-yl)ethyl)-1H-pyrazol-4-yl)pyrazine-2-carboxamide], the 50% inhibitory concentration (IC50) at Human plasma kallikrein was 20 nM; at human factor XIa it was 8230 nM.
Take `CC(c1cnc(N2CC3CC3C2)nc1)n1cc(NC(=O)c2cncc(-c3c(C(F)F)ccc(Cl)c3F)n2)cn1` (single isomer, unassigned) [Example 31, N-(1-((1S or 1R)-1-(2-(3-azabicyclo[3.1.0]hexan-3-yl)pyrimidin-5-yl)ethyl)-1H-pyrazol-4-yl)-6-(3-chloro-6-(difluoromethyl)-2-fluorophenyl)pyrazine-2-carboxamide]: the IC50 amounted to 27 nM against Human plasma kallikrein and 2720 nM at human factor XIa.
For `Cc1nc(N2CCC2)ccc1Cn1cc(NC(=O)c2cncc(-c3c(C(F)F)ccc(Cl)c3F)n2)cn1` [Example 9, N-(1-((6-(Azetidin-1-yl)-2-methylpyridin-3-yl)methyl)-1H-pyrazol-4-yl)-6-(3-chloro-6-(difluoromethyl)-2-fluorophenyl)pyrazine-2-carboxamide], in that order: 5.2 nM and 5100 nM.
For `CC(c1cnc(N2CCC2)nc1)n1cc(NC(=O)c2cncc(-c3cc(Cl)ccc3-n3cnnn3)n2)cn1` (single isomer, unassigned) [Example 58, (S or R)-N-(1-(1-(2-(Azetidin-1-yl)pyrimidin-5-yl)ethyl)-1H-pyrazol-4-yl)-6-(5-chloro-2-(1H-tetrazol-1-yl)phenyl)pyrazine-2-carboxamide], in that order: 8.1 nM and 413 nM.
For `CC(c1cnc(N2CCC2)nc1)n1cc(NC(=O)c2cncc(-c3c(OC(F)F)ccc(Cl)c3F)n2)cn1` (single isomer, unassigned) [Example 56, (R or S)-N-(1-(1-(2-(Azetidin-1-yl)pyrimidin-5-yl)ethyl)-1H-pyrazol-4-yl)-6-(3-chloro-6-(difluoromethoxy)-2-fluorophenyl)pyrazine-2-carboxamide], in that order: 27.7 nM and 1490 nM.
For the compound `CC(c1cnc(N2CC3CC3C2)nc1)n1cc(NC(=O)c2cncc(-c3c(C(F)F)ccc(Cl)c3F)n2)cn1` (single isomer, unassigned) [Example 32, N-(1-((1R or 1S)-1-(2-(3-azabicyclo[3.1.0]hexan-3-yl)pyrimidin-5-yl)ethyl)-1H-pyrazol-4-yl)-6-(3-chloro-6-(difluoromethyl)-2-fluorophenyl)pyrazine-2-carboxamide], the results for the IC50 on Human plasma kallikrein and on human factor XIa were 8.1 nM and 1520 nM, respectively.
Turning to `C[C@@H](c1cnc(N2CC(C)(F)C2)nc1)n1cc(NC(=O)c2cncc(-c3c(C(F)F)ccc(Cl)c3F)n2)cn1` [Example 101, (S)-6-(3-Chloro-6-(difluoromethyl)-2-fluorophenyl)-N-(1-(1-(2-(3-fluoro-3-methylazetidin-1-yl)pyrimidin-5-yl)ethyl)-1H-pyrazol-4-yl)pyrazine-2-carboxamide], the IC50 on Human plasma kallikrein was 31.2 nM; at human factor XIa, 7640 nM.
For `Cc1ncc(-c2c(C(F)F)ccc(Cl)c2F)nc1C(=O)Nc1cnn(C(CO)c2cnc(N3CCC3)nc2)c1` (single isomer, unassigned) [Example 46, (S or R)-N-(1-(1-(2-(Azetidin-1-yl)pyrimidin-5-yl)-2-hydroxyethyl)-1H-pyrazol-4-yl)-6-(3-chloro-6-(difluoromethyl)-2-fluorophenyl)-3-methylpyrazine-2-carboxamide], in that order: 3.7 nM and 595 nM.
For `O=C(Nc1cnn(Cc2cnc(N3CCC3)nc2)c1)c1nc(-c2c(C(F)F)ccc(Cl)c2F)cnc1C(F)F` [Example 136, N-(1-((2-(Azetidin-1-yl)pyrimidin-5-yl)methyl)-1H-pyrazol-4-yl)-6-(3-chloro-6-(difluoromethyl)-2-fluorophenyl)-3-(difluoromethyl)pyrazine-2-carboxamide], in that order: 8.6 nM and 838 nM.
For `[2H]C(C)(c1cnc(N2CCC2)nc1)n1cc(NC(=O)c2cncc(-c3c(C(F)F)ccc(Cl)c3F)n2)cn1` (single isomer, unassigned) [Example 42, (S or R)-N-(1-(1-(2-(azetidin-1-yl)pyrimidin-5-yl)ethyl-1-d)-1H-pyrazol-4-yl)-6-(3-chloro-6-(difluoromethyl)-2-fluorophenyl)pyrazine-2-carboxamide], in that order: 4.7 nM and 1110 nM.
For `O=C(Nc1cnn(Cc2cnc(N3CCCC3CN3CC[C@H](F)C3)nc2)c1)c1cncc(-c2c(C(F)F)ccc(Cl)c2F)n1` (stereo partly drawn) [Example 148, 6-(3-Chloro-6-(difluoromethyl)-2-fluorophenyl)-N-(1-((2-(2-(((S)-3-fluoropyrrolidin-1-yl)methyl)pyrrolidin-1-yl)pyrimidin-5-yl)methyl)-1H-pyrazol-4-yl)pyrazine-2-carboxamide], the results for the 50% inhibitory concentration (IC50) against Human plasma kallikrein and on human factor XIa were 0.6 nM and 2930 nM, respectively.
For `CC(c1cnc(N2CC[C@H](O)C2)nc1)n1cc(NC(=O)c2cncc(-c3c(C(F)F)ccc(Cl)c3F)n2)cn1` (mixture of isomers) [Example 96, 6-(3-Chloro-6-(difluoromethyl)-2-fluorophenyl)-N-(1-((R and S)-1-(2-((S)-3-hydroxypyrrolidin-1-yl)pyrimidin-5-yl)ethyl)-1H-pyrazol-4-yl)pyrazine-2-carboxamide], in that order: 25.9 nM and 3710 nM.
For `NC(=O)[C@H]1CCCN1c1ncc(Cn2cc(NC(=O)c3cncc(-c4c(C(F)F)ccc(Cl)c4F)n3)cn2)cn1` [Example 97, (R)-N-(1-((2-(2-Carbamoylpyrrolidin-1-yl)pyrimidin-5-yl)methyl)-1H-pyrazol-4-yl)-6-(3-chloro-6-(difluoromethyl)-2-fluorophenyl)pyrazine-2-carboxamide], in that order: 26.9 nM and 8930 nM.
For `CN(CC1CCCN1c1ncc(Cn2cc(NC(=O)c3cncc(-c4c(C(F)F)ccc(Cl)c4F)n3)cn2)cn1)CC1(O)CC1` (single isomer, unassigned) [Example 141, (R or S)-6-(3-Chloro-6-(difluoromethyl)-2-fluorophenyl)-N-(1-((2-(2-((((1-hydroxycyclopropyl)methyl)(methyl)amino)methyl)pyrrolidin-1-yl)pyrimidin-5-yl)methyl)-1H-pyrazol-4-yl)pyrazine-2-carboxamide], the half-maximal inhibitory concentration (IC50) on Human plasma kallikrein came to 0.3 nM; on human factor XIa it was 4730 nM.
As for `C[C@@H](c1cnc(N2C[C@@H]3C[C@@H]3[C@@H]2CO)nc1)n1cc(NC(=O)c2cncc(-c3c(C(F)F)ccc(Cl)c3F)n2)cn1` (single isomer, unassigned) [Example 71, 6-(3-Chloro-6-(difluoromethyl)-2-fluorophenyl)-N-(1-((S or R)-1-(2-((1S,2R,5R or 1R,2S,5S)-2-(hydroxymethyl)-3-azabicyclo[3.1.0]hexan-3-yl)pyrimidin-5-yl)ethyl)-1H-pyrazol-4-yl)pyrazine-2-carboxamide], the IC50 on Human plasma kallikrein was found to be 2.5 nM; on human factor XIa, 2260 nM.
For `CC(c1cnc(N2CCC2)cn1)n1cc(NC(=O)c2cncc(-c3c(C(F)F)ccc(Cl)c3F)n2)cn1` (single isomer, unassigned) [Example 30, (R or S)-N-(1-(1-(5-(azetidin-1-yl)pyrazin-2-yl)ethyl)-1H-pyrazol-4-yl)-6-(3-chloro-6-(difluoromethyl)-2-fluorophenyl)pyrazine-2-carboxamide], in that order: 7.8 nM and 2170 nM.
For `C[C@@H](c1cnc(N2C[C@@H]3C[C@@H]3[C@@H]2CO)nc1)n1cc(NC(=O)c2cncc(-c3c(C(F)F)ccc(Cl)c3F)n2)cn1` (single isomer, unassigned) [Example 74, 6-(3-Chloro-6-(difluoromethyl)-2-fluorophenyl)-N-(1-((S or R)-1-(2-((1S,2R,5R or 1R,2S,5S)-2-(hydroxymethyl)-3-azabicyclo[3.1.0]hexan-3-yl)pyrimidin-5-yl)ethyl)-1H-pyrazol-4-yl)pyrazine-2-carboxamide], in that order: 4.3 nM and 1020 nM.
For `C[C@H](O)c1ncc(-c2c(C(F)F)ccc(Cl)c2F)nc1C(=O)Nc1cnn(Cc2cnc(N3CCC3)nc2)c1` (single isomer, unassigned) [Example 134], in that order: 9.4 nM and 852 nM.
Regarding `C[C@@H](c1cnc(N2C[C@@H]3C[C@@H]3[C@@H]2C#N)nc1)n1cc(NC(=O)c2cncc(-c3c(C(F)F)ccc(Cl)c3F)n2)cn1` [Example 199, 6-(3-chloro-6-(difluoromethyl)-2-fluorophenyl)-N-(1-((S)-1-(2-((1S,2R,5R)-2-cyano-3-azabicyclo[3.1.0]hexan-3-yl)pyrimidin-5-yl)ethyl)-1H-pyrazol-4-yl)pyrazine-2-carboxamide], the IC50 against Human plasma kallikrein was 1.5 nM; at human factor XIa, 4790 nM.
For `CC(c1cnc(N2CC[C@H]2CN2C[C@@H](O)[C@H](F)C2)nc1)n1cc(NC(=O)c2cncc(-c3c(C(F)F)ccc(Cl)c3F)n2)cn1` (stereo partly drawn) [Example 169, 6-(3-Chloro-6-(difluoromethyl)-2-fluorophenyl)-N-(1-(1-(2-((S)-2-(((3R,4R)-3-fluoro-4-hydroxypyrrolidin-1-yl)methyl)azetidin-1-yl)pyrimidin-5-yl)ethyl)-1H-pyrazol-4-yl)pyrazine-2-carboxamide], in that order: 1.5 nM and 9180 nM.

As a reminder, the IC50 is the concentration that gives 50% inhibition.
